Assay results reported in patent publication US11297838B2, “Pesticidal compositions and methods” (CORTEVA AGRISCIENCE LLC, priority 2018, dated 2022).

Legend:
Type in all cases: in vivo
[1] = system: Cabbage Looper (Trichloplusia ni, TRIPNI); experiment: Insecticidal test for cabbage looper (CL), 128-well diet tray assay; conditions: Trichoplusia ni, 168 h; 50 μg/cm^2 on artificial diet, second instar larvae, five to seven days, 25° C.; read-out: CL rating, % Control (or Mortality)
Protocol: Insecticidal Test for Cabbage Looper (Trichloplusia ni, TRIPNI) (“CL”)
Bioassays on cabbage looper (CL; Trichloplusia ni: Lepidoptera) are conducted using a 128-well diet tray assay. One to five second instar CL larvae are placed in each well (3 mL) of the diet tray that had been previously filled with 1 mL of artificial diet to which 50 μg/cm^2 of the test compound (dissolved in 50 μL of 90:10 acetone-water mixture) had been applied (to each of eight wells) and then allowed to dry. Trays are covered with a clear self-adhesive cover, vented to allow gas exchange, and held at 25° C., 14:10 light-dark for five to seven days. Percent mortality is recorded for the larvae in each well; activity in the eight wells is then averaged. In the reporting of the results, the “BAW & CL Rating Table” was used.

[2] = system: Yellow Fever Mosquito (Aedes aegypti, AEDSAE); conditions: about 1 day-old larvae, 4000 ppm master solution diluted, 3 days, room temperature
Protocol: Insecticidal Test for Yellow Fever Mosquito (Aedes aegypti, AEDSAE) (“YFM”)
Master plates containing 400 μg of a molecule dissolved in 100 μL of dimethyl sulfoxide (DMSO) (equivalent to a 4000 ppm solution) are used. A master plate of assembled molecules contains 15 μL per well. To this plate, 135 μL of a 90:10 water/acetone mixture is added to each well. A robot (Biomek® NXP Laboratory Automation Workstation) is programmed to dispense 15 μL aspirations from the master plate into an empty 96-well shallow plate (“daughter” plate). There are 6 reps (“daughter” plates) created per master. The created “daughter” plates are then immediately infested with YFM larvae.
The day before plates are to be treated, mosquito eggs are placed in Millipore water containing liver powder to begin hatching (4 g. into 400 mL). After the “daughter” plates are created using the robot, they are infested with 220 μL of the liver powder/larval mosquito mixture (about 1 day-old larvae). After plates are infested with mosquito larvae, a non-evaporative lid is used to cover the plate to reduce drying. Plates are held at room temperature for 3 days prior to grading. After 3 days, each well is observed and scored based on mortality. In the reporting of the results, the “YFM Rating Table” was used.

[3] = system: Beet Armyworm (Spodoptera exigua, LAPHEG); experiment: Insecticidal test for beet armyworm (BAW), 128-well diet tray assay; conditions: 168 h, 50 μg/cm^2 on artificial diet, second instar larvae, five to seven days, 25° C., read-out: BAW rating, % Control (or Mortality)
Protocol: Insecticidal Test for Beet Armyworm (Spodoptera exigua, LAPHEG) (“BAW”)
Bioassays on beet armyworm (BAW; Spodoptera exigua: Lepidoptera) are conducted using a 128-well diet tray assay. One to five second instar BAW larvae are placed in each well (3 mL) of the diet tray that had been previously filled with 1 mL of artificial diet to which 50 μg/cm^2 of the test compound (dissolved in 50 μL of 90:10 acetone-water mixture) had been applied (to each of eight wells) and then allowed to dry. Trays are covered with a clear self-adhesive cover, vented to allow gas exchange, and held at 25° C., 14:10 light-dark for five to seven days. Percent mortality is recorded for the larvae in each well; activity in the eight wells is then averaged. In the reporting of the results, the “BAW & CL Rating Table” was used.

SMILES	mortality at 50 µg/cm2 [1]	YFM rating, % Control (or Mortality) [2]	mortality at 50 µg/cm2 [3]
CC(C)c1ccccc1N1C(=O)CS/C1=N\C(=O)OCCc1ccc(-c2ncn(-c3ccc(OC(F)(F)F)cc3)n2)cc1 [A2, 4-(1-(4-(Trifluoromethoxy)phenyl)-1H-1,2,4-triazol-3-yl)phenethyl (Z)-(3-(2-isopropylphenyl)-4-oxothiazolidin-2-ylidene)carbamate]	50 to 100%	A (80-100)	50 to 100%
Cc1cc(Cl)c(N2C(=O)CS/C2=N\C(=O)OCC(F)c2ccc(-c3ncn(-c4ccc(OC(F)(F)F)cc4)n3)cc2)cc1C (stereo not drawn) [A38, 2-Fluoro-2-(4-(1-(4-(trifluoromethoxy)phenyl)-1H-1,2,4-triazol-3-yl)phenyl)ethyl (Z)-(3-(2-chloro-4,5-dimethylphenyl)-4-oxothiazolidin-2-ylidene)carbamate]	50 to 100%		0%
O=C(/N=C1\SCC(=O)N1c1cccc2c1CCCC2)OCC(F)c1ccc(-c2ncn(-c3ccc(OC(F)(F)F)cc3)n2)cc1 (stereo not drawn) [A39, 2-Fluoro-2-(4-(1-(4-(trifluoromethoxy)phenyl)-1H-1,2,4-triazol-3-yl)phenyl)ethyl (Z)-(4-oxo-3-(5,6,7,8-tetrahydronaphthalen-1-yl)thiazolidin-2-ylidene)carbamate]	50 to 100%		50 to 100%
CCOc1ccccc1N1C(=O)CS/C1=N\C(=O)OCC(F)c1ccc(-c2ncn(-c3ccc(OC(F)(F)F)cc3)n2)cc1 (stereo not drawn) [A40, 2-Fluoro-2-(4-(1-(4-(trifluoromethoxy)phenyl)-1H-1,2,4-triazol-3-yl)phenyl)ethyl (Z)-(3-(2-ethoxyphenyl)-4-oxothiazolidin-2-ylidene)carbamate]	50 to 100%		50 to 100%
CCC(C)Oc1ccc(C)cc1N1C(=O)CS/C1=N\C(=O)OCC(F)c1ccc(-c2ncn(-c3ccc(OC(F)(F)F)cc3)n2)cc1 (stereo not drawn) [A41, 2-Fluoro-2-(4-(1-(4-(trifluoromethoxy)phenyl)-1H-1,2,4-triazol-3-yl)phenyl)ethyl (Z)-(3-(2-(sec-butoxy)-5-methylphenyl)-4-oxothiazolidin-2-ylidene)carbamate]	50 to 100%		50 to 100%
CCc1cccc(C)c1N1C(=O)CS/C1=N\C(=O)OCC(F)c1ccc(-c2ncn(-c3ccc(OC(F)(F)F)cc3)n2)cc1 (stereo not drawn) [A42, 2-Fluoro-2-(4-(1-(4-(trifluoromethoxy)phenyl)-1H-1,2,4-triazol-3-yl)phenyl)ethyl (Z)-(3-(2-ethyl-6-methylphenyl)-4-oxothiazolidin-2-ylidene)carbamate]	50 to 100%		0 to 50%
CC(C)c1ccc(Cl)cc1N1C(=O)CS/C1=N\C(=O)OCCc1ccc(-c2ncn(-c3ccc(OC(F)(F)C(F)(F)F)cc3)n2)cc1 [A43, 4-(1-(4-(Perfluoroethoxy)phenyl)-1H-1,2,4-triazol-3-yl)phenethyl (Z)-(3-(5-chloro-2-isopropylphenyl)-4-oxothiazolidin-2-ylidene)carbamate]	0%		50 to 100%
Cc1ccc(C(C)C)c(N2C(=O)CS/C2=N\C(=O)OCCc2ccc(-c3ncn(-c4ccc(OC(F)(F)C(F)(F)F)cc4)n3)cc2)c1 [A44, 4-(1-(4-(Perfluoroethoxy)phenyl)-1H-1,2,4-triazol-3-yl)phenethyl (Z)-(3-(2-isopropyl-5-methylphenyl)-4-oxothiazolidin-2-ylidene)carbamate]	50 to 100%		50 to 100%
CC(C)c1ccccc1N1C(=O)CS/C1=N\C(=O)OCCc1ccc(-c2ncn(-c3ccc(OC(F)(F)C(F)(F)F)cc3)n2)cc1 [A45, 4-(1-(4-(Perfluoroethoxy)phenyl)-1H-1,2,4-triazol-3-yl)phenethyl (Z)-(3-(2-isopropylphenyl)-4-oxothiazolidin-2-ylidene)carbamate]	50 to 100%		50 to 100%
Cc1ccc(C(C)C)c(N2C(=O)CS/C2=N\C(=O)OCC(Cl)c2ccc(-c3ncn(-c4ccc(OC(F)(F)F)cc4)n3)cc2)c1 (stereo not drawn) [A46, 2-Chloro-2-(4-(1-(4-(trifluoromethoxy)phenyl)-1H-1,2,4-triazol-3-yl)phenyl)ethyl (Z)-(3-(2-isopropyl-5-methylphenyl)-4-oxothiazolidin-2-ylidene)carbamate]	50 to 100%		50 to 100%
CC(C)c1ccccc1N1C(=O)CS/C1=N\C(=O)OCC(Cl)c1ccc(-c2ncn(-c3ccc(OC(F)(F)F)cc3)n2)cc1 (stereo not drawn) [A47, 2-Chloro-2-(4-(1-(4-(trifluoromethoxy)phenyl)-1H-1,2,4-triazol-3-yl)phenyl)ethyl (Z)-(3-(2-isopropylphenyl)-4-oxothiazolidin-2-ylidene)carbamate]	50 to 100%		50 to 100%
CC(C)c1ccc(Cl)cc1N1C(=O)CS/C1=N\C(=O)OCC(Cl)c1ccc(-c2ncn(-c3ccc(OC(F)(F)F)cc3)n2)cc1 (stereo not drawn) [A48, 2-Chloro-2-(4-(1-(4-(trifluoromethoxy)phenyl)-1H-1,2,4-triazol-3-yl)phenyl)ethyl (Z)-(3-(5-chloro-2-isopropylphenyl)-4-oxothiazolidin-2-ylidene)carbamate]	50 to 100%		50 to 100%
CCC(C)Oc1ccc(C)cc1N1C(=O)CS/C1=N\C(=O)OC(C)Cc1ccc(-c2ncn(-c3ccc(OC(F)(F)F)cc3)n2)cc1 (stereo not drawn) [A49, 1-(4-(1-(4-(Trifluoromethoxy)phenyl)-1H-1,2,4-triazol-3-yl)phenyl)propan-2-yl (Z)-(3-(2-(sec-butoxy)-5-methylphenyl)-4-oxothiazolidin-2-ylidene)carbamate]	50 to 100%		50 to 100%
CC(Cc1ccc(-c2ncn(-c3ccc(OC(F)(F)F)cc3)n2)cc1)OC(=O)/N=C1\SCC(=O)N1c1ccccc1C(C)C (stereo not drawn) [A50, 1-(4-(1-(4-(Trifluoromethoxy)phenyl)-1H-1,2,4-triazol-3-yl)phenyl)propan-2-yl (Z)-(3-(2-isopropylphenyl)-4-oxothiazolidin-2-ylidene)carbamate]	50 to 100%		50 to 100%
CCOc1ccccc1N1C(=O)CS/C1=N\C(=O)OC(C)Cc1ccc(-c2ncn(-c3ccc(OC(F)(F)F)cc3)n2)cc1 (stereo not drawn) [A51, 1-(4-(1-(4-(Trifluoromethoxy)phenyl)-1H-1,2,4-triazol-3-yl)phenyl)propan-2-yl (Z)-(3-(2-ethoxyphenyl)-4-oxothiazolidin-2-ylidene)carbamate]	50 to 100%		50 to 100%
CCc1cccc(C)c1N1C(=O)CS/C1=N\C(=O)OC(C)Cc1ccc(-c2ncn(-c3ccc(OC(F)(F)F)cc3)n2)cc1 (stereo not drawn) [A52, 1-(4-(1-(4-(Trifluoromethoxy)phenyl)-1H-1,2,4-triazol-3-yl)phenyl)propan-2-yl (Z)-(3-(2-ethyl-6-methylphenyl)-4-oxothiazolidin-2-ylidene)carbamate]	50 to 100%		50 to 100%
Cc1ccc(C(C)C)c(-n2ccs/c2=N\C(=O)OCCc2ccc(-c3ncn(-c4ccc(OC(F)(F)F)cc4)n3)cc2)c1 [A53, 4-(1-(4-(Trifluoromethoxy)phenyl)-1H-1,2,4-triazol-3-yl)phenethyl (Z)-(3-(2-isopropyl-5-methylphenyl)thiazol-2(3H)-ylidene)carbamate]	50 to 100%		50 to 100%
Cc1ccc(C(C)C)c(-n2ccs/c2=N\C(=O)OCC(F)c2ccc(-c3ncn(-c4ccc(OC(F)(F)F)cc4)n3)cc2)c1 (stereo not drawn) [A54, 2-Fluoro-2-(4-(1-(4-(trifluoromethoxy)phenyl)-1H-1,2,4-triazol-3-yl)phenyl)ethyl (Z)-(3-(2-isopropyl-5-methylphenyl)thiazol-2(3H)-ylidene)carbamate]	50 to 100%		50 to 100%
Cc1ccc(C(C)C)c(-n2ccs/c2=N\C(=O)OC(C)Cc2ccc(-c3ncn(-c4ccc(OC(F)(F)F)cc4)n3)cc2)c1 (stereo not drawn) [A55, 1-(4-(1-(4-(Trifluoromethoxy)phenyl)-1H-1,2,4-triazol-3-yl)phenyl)propan-2-yl (Z)-(3-(2-isopropyl-5-methylphenyl)thiazol-2(3H)-ylidene)carbamate]	50 to 100%		50 to 100%
